# Results taken from patent US8598342B2, “Methods and compounds for antimicrobial intervention” (President and Fellows of Harvard College, priority 2008, dated 2013).
# “Also recorded” adds a separate entry of the source.
# Columns and labels:
# S. aureus TarB = molecular target: T1, S. aureus TarB (Staphylococcus aureus, UniProt Q2G2X4); assay: In vitro enzyme inhibition assay, TarB (radiometric); format: biochemical; conditions: targocil 50 μg/mL; enzyme 200 nM
# T1 construct: made in house
# T1 sequence (Q2G2X4 1-367): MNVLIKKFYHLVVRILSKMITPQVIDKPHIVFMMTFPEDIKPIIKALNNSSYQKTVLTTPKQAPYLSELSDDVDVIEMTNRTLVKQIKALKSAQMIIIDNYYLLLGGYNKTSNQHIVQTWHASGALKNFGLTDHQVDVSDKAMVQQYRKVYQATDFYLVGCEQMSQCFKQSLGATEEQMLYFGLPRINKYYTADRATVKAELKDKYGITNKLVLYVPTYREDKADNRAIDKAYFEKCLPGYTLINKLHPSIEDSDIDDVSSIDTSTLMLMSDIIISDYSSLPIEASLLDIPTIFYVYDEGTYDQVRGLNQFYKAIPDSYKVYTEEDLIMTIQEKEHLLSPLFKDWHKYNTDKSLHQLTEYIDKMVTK
# Method: (§1) S. aureus TarB, D, F, I, and L were cloned, overexpressed and purified as described previously (S. Brown, Y. H. Zhang, S. Walker, Chemistry & Biology 15, 12, Jan. 2008.) Radiometric in vitro assays were run to test the inhibitory effects of targocil on Tar B, D, F, and L, while TarI was assayed for targocil inhibition using an HPLC assay using conditions similar to those previously reported (ibid). See below for exact reaction conditions. […] In each case, a reaction with no targocil served as a negative control (active enzymatic reaction) and a reaction with heat-treated enzyme served as a positive control (no enzymatic reaction). Targocil was incubated with all reaction components except the substrates at room temperature. After 10 minutes, substrates were added and the reactions were allowed to proceed for 60 minutes. The reactions were quenched with DMF and the products were imaged/monitored as previously described (ibid).
# [1] = system: S. aureus RN4220 TarG:F82L (m4); assay: MIC analysis of RN4220 carrying the mutant tarG allele TarG:F82L; format: cell-based, Staphylococcus aureus; conditions: mutant allele exchanged into RN4220
# Text: Therefore, we conclude that TarG is a target of targocil. […] (Davidson A L, Dassa E, Orelle C, & Chen J (2008) Microbiology and Molecular Biology Reviews 72:317-364) In addition to functioning as antibiotics, inhibitors such as targocil, and derivatives thereof, could be valuable tools for mechanistic and structural analyses of ABC transporters.
# [2] = system: strain overexpressing S. aureus TarGH; assay: Growth of S. aureus RN4220 overexpressing S. aureus tarGH; format: cell-based, Staphylococcus aureus; conditions: 28° C., 12 h, OD600
# Method: (§2) (A) Targocil MIC data for a panel of Gram-positive strains, including MRSA clinical isolates B5271 and 5340A. Growth was monitored in triplicate after 12 h at 28° C. using optical density. (B) Two dimensional drug interaction analysis between tunicamycin and targocil grown for 18 h at 30° C. […] At higher concentrations, tunicamycin is toxic because it inhibits cell wall biosynthesis. […] Varying concentrations of drug were added to […] of S. aureus RN4220 after 5 h and cell count was monitored over time at 30° C. […] Cells were grown at 28° C. for 12 h and monitored for growth using optical density (OD600). Data were normalized to the DMSO controls for each strain. (E) Two classes of mutants were examined: phage resistant (m1 3) and phage sensitive (m4-5).
# S. aureus TarI = molecular target: T2, S. aureus TarI (Staphylococcus aureus, UniProt Q2G1C0); assay: In vitro enzyme inhibition assay, TarI (HPLC); format: biochemical; conditions: targocil 50 μg/mL; enzyme 200 nM
# T2 construct: made in house
# T2 sequence (Q2G1C0 1-238): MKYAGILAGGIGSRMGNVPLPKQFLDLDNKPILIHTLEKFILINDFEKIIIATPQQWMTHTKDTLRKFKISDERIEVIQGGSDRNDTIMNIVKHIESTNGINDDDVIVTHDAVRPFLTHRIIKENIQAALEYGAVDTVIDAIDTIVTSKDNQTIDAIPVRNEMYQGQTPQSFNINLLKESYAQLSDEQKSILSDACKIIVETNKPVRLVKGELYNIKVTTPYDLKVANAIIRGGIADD
# Method: as §1
# TarI in vitro inhibition assay protocol and data. […] The reactions were monitored by HPLC using an anion exchange column, Phenosphere 5μ SAX 250×4.6 mm, 5 μm (Phenomenex), to record the disappearance of the CTP peak and production of a new CDP ribitol peak (Buffer A: 5 mM NH4H2PO4, pH 2.8, Buffer B: 750 mM NH4H2PO4, pH 3.7, isocratic elution 75% B over 20 minutes, UV monitored at 271 nm).
# S. aureus RN4220 = assay: Kill curve analysis; format: cell-based, Staphylococcus aureus; conditions: 10^6 cfu/mL S. aureus RN4220, 30° C.
# Method: as §2
# [3] = system: IPTG-inducible tarO strain of S. aureus; assay: Growth of the IPTG-inducible tarO strain as a function of targocil concentration; format: cell-based, Staphylococcus aureus
# Text: (Top) Schematic of the IPTG-inducible tarO operon. […] Data were normalized to the DMSO controls for each strain.
# S. aureus TarD = molecular target: T3, S. aureus TarD (Staphylococcus aureus, UniProt Q2G2X2); assay: In vitro enzyme inhibition assay, TarD (radiometric); format: biochemical; conditions: targocil 50 μg/mL; enzyme 200 nM
# T3 construct: made in house
# T3 sequence (Q2G2X2 1-132): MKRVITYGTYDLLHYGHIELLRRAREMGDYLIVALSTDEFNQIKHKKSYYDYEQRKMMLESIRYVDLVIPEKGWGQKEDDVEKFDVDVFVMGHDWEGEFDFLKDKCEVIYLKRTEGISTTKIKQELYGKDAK
# Method: as §1
# TarD in vitro inhibition assay protocol and data. Each 3 μL reaction contained 50 mM HEPES pH 8, 10 mM MgCl2, 1 mM DTT, 1 μM [14C]-glycerol-3-phosphate, 9 μM glycerol-3-phosphate, 20 μM CTP, 200 nM TarD. The reactions were quenched with 3 μL DMF, and 2 μL of the reaction mixture were combined with 2 μL 2× loading dye (40% glycerol, 0.2% bromophenol blue) and loaded onto a 20% acrylamide/0.25M TBE gel as described previously (ibid.). […]
# [4] = system: S. aureus strain expressing B. subtilis 168 TagGH; assay: Growth of S. aureus RN4220 expressing B. subtilis 168 tagGH; format: cell-based, Staphylococcus aureus; conditions: 28° C., 12 h, OD600
# Method: as §2
smiles,measurement,setting,value
"CCN(CC)c1nc2c(S(=O)(=O)c3ccccc3)nnn2c2ccc(Cl)cc12 [7-chloro-N,N-diethyl-3-(phenylsulfonyl)-[1,2,3]triazolo[1,5-a]quinazolin-5-amine]",inhibition of TarB,S. aureus TarB,None of these enzymes was inhibited
same,resistance to targocil of TarG:F82L strain,[1],fully resistant; also recorded: confer resistance
same,resistance to targocil of strain overexpressing S. aureus TarGH,[2],partially resistant; also recorded: partial resistance
same,inhibition of TarI,S. aureus TarI,None of these enzymes was inhibited
same,mode of action in kill curve (bacteriostatic or bactericidal),S. aureus RN4220,bacteriostatic
same,"effect on cell growth, tarO not induced",[3]; in the absence of IPTG,no effect
same,"effect on cell growth, tarO induced",[3]; in the presence of IPTG,inhibited cell growth
same,inhibition of TarD,S. aureus TarD,None of these enzymes was inhibited
same,resistance to targocil of strain expressing B. subtilis 168 TagGH,[4],fully resistant; also recorded: complete resistance
